15 compounds from ChEMBL document CHEMBL3217594, “Structureactivity relationships of methyl-lysine reader antagonists” (Medchemcomm, 2012) can be followed below.

Assay [1] concerns the target MBT domain-containing protein 1 (Homo sapiens, UniProt Q05BQ5). The assay can be described thus: Antagonist activity at MBTD1 (unknown origin) assessed as inhibition of MBTD1/biotinylated H4K20Me1 peptide interaction at 30 uM after 30 mins by AlphaScreen assay. For orientation: Alpha assays give light when donor and acceptor beads are brought close together.
Assay [2] deals with T1, Lethal(3)malignant brain tumor-like protein 1 (Homo sapiens) (UniProt Q9Y468).
T1 sequence (whole entry): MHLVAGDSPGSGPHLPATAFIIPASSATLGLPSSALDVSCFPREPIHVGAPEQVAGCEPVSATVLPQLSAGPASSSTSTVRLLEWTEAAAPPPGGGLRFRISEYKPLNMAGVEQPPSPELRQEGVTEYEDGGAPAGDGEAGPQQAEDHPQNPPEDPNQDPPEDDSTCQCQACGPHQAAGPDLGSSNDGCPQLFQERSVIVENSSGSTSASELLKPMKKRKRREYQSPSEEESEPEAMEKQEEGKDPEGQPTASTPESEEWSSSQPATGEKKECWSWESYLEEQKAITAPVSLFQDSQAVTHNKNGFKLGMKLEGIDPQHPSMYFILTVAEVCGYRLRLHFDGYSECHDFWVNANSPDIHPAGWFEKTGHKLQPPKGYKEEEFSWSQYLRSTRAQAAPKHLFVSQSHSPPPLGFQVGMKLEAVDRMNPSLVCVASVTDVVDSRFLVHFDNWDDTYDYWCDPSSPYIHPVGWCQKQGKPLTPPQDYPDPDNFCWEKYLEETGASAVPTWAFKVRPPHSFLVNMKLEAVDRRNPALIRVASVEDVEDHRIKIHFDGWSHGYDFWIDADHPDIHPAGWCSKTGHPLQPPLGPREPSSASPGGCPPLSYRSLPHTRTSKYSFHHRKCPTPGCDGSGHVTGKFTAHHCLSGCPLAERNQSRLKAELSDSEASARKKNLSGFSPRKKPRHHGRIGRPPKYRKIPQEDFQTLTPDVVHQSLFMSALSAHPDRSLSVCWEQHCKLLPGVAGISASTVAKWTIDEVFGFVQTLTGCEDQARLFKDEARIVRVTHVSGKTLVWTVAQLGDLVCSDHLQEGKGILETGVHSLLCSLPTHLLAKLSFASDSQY
The conditions noted are these: Plus RIL, 30 uM.

Assay [3] concerns the target T2, Lethal(3)malignant brain tumor-like protein 4 (Homo sapiens) (UniProt Q8NA19).
T2 sequence (whole entry): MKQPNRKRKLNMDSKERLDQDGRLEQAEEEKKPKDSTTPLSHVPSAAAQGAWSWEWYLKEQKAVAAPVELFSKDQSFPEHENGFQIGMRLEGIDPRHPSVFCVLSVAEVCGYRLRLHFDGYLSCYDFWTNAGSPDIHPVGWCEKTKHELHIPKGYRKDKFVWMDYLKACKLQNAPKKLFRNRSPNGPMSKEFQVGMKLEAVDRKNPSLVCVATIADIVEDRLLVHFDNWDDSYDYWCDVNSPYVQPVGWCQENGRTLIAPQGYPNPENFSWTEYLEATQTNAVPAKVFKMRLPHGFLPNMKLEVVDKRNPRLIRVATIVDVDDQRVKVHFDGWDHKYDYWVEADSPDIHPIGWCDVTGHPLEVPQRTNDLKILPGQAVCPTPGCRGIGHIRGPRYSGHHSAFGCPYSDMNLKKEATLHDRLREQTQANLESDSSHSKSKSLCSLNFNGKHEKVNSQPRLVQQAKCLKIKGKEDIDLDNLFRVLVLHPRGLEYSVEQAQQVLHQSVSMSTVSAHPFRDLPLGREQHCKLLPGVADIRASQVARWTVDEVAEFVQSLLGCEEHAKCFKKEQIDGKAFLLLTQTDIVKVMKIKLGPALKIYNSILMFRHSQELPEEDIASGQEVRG
The assay can be described thus: Antagonist activity at L3MBTL4 (unknown origin) assessed as inhibition of L3MBTL4/biotinylated H2AK36Me1 peptide interaction at 30 uM after 30 mins by AlphaScreen assay.

Assay [4] addresses T3, Lethal(3)malignant brain tumor-like protein 4 (Homo sapiens, UniProt Q8NA19).
T3 sequence (Q8NA19 whole entry): T2 sequence (whole entry)
The assay can be described thus: Antagonist activity at L3MBTL4 (unknown origin) assessed as inhibition of L3MBTL4/biotinylated H2AK36Me1 peptide interaction after 30 mins by AlphaScreen assay.

The target in assay [5] is T4, Lethal(3)malignant brain tumor-like protein 3 (Homo sapiens) (UniProt Q96JM7).
T4 sequence (whole entry): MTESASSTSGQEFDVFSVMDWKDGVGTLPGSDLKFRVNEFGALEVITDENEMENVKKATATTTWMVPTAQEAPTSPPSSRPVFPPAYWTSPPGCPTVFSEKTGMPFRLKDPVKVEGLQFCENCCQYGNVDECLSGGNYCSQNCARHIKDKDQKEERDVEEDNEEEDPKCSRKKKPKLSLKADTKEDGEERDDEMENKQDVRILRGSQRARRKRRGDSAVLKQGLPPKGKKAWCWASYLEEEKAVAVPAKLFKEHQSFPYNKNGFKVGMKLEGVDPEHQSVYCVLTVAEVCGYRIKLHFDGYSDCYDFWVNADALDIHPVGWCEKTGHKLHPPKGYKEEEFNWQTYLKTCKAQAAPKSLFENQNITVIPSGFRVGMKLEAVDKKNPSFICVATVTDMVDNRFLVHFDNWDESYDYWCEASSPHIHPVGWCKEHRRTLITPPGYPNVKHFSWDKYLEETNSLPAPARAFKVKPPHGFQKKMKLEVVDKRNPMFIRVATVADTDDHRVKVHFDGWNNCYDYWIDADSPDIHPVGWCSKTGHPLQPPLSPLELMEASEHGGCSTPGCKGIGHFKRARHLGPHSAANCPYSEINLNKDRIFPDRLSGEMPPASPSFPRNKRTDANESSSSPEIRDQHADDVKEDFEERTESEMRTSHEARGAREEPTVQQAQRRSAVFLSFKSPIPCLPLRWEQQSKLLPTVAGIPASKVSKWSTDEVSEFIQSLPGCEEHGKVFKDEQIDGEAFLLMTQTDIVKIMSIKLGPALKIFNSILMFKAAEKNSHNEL
The assay can be described thus: Antagonist activity at His-tagged L3MBTL3 (unknown origin) assessed as inhibition of L3MBTL3/biotinylated H4K20Me2 peptide interaction at 30 uM after 30 mins by AlphaScreen assay.

The target of assay [6] is TP53-binding protein 1 (Homo sapiens) (UniProt Q12888). The assay can be described thus: Effect on GST-fused 53BP1 Tudor domain (unknown origin)/biotinylated H4K20Me1 peptide interaction assessed as binding of 53BP1 to H4K20Me1 at 5 uM by pull down assay based western blot analysis. On the technique in general: A western blot detects proteins with antibodies after separation by electrophoresis.

Active and inactive are the calls of the source. No cut-off for these calls is given here.

Sequence of MBT domain-containing protein 1 (Q05BQ5 whole entry, the tested form may be a part): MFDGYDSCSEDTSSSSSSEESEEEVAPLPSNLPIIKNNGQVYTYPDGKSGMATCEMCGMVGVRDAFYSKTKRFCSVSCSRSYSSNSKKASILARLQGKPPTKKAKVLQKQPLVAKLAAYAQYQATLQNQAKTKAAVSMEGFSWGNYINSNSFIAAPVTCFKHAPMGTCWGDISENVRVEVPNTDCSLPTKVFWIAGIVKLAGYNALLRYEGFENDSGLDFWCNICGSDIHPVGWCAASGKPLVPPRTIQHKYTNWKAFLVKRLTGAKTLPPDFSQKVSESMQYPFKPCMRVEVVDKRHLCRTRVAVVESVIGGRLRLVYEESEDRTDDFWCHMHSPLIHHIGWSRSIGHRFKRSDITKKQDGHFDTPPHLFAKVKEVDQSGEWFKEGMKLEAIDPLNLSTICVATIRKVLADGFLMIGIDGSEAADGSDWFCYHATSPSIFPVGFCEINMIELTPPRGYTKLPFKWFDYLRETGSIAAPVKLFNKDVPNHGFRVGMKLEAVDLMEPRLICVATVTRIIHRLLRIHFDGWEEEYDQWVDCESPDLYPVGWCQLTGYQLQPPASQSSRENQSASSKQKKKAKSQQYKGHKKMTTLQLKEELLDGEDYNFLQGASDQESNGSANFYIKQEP
Sequence of TP53-binding protein 1 (Homo sapiens) (Q12888 whole entry, the tested form may be a part): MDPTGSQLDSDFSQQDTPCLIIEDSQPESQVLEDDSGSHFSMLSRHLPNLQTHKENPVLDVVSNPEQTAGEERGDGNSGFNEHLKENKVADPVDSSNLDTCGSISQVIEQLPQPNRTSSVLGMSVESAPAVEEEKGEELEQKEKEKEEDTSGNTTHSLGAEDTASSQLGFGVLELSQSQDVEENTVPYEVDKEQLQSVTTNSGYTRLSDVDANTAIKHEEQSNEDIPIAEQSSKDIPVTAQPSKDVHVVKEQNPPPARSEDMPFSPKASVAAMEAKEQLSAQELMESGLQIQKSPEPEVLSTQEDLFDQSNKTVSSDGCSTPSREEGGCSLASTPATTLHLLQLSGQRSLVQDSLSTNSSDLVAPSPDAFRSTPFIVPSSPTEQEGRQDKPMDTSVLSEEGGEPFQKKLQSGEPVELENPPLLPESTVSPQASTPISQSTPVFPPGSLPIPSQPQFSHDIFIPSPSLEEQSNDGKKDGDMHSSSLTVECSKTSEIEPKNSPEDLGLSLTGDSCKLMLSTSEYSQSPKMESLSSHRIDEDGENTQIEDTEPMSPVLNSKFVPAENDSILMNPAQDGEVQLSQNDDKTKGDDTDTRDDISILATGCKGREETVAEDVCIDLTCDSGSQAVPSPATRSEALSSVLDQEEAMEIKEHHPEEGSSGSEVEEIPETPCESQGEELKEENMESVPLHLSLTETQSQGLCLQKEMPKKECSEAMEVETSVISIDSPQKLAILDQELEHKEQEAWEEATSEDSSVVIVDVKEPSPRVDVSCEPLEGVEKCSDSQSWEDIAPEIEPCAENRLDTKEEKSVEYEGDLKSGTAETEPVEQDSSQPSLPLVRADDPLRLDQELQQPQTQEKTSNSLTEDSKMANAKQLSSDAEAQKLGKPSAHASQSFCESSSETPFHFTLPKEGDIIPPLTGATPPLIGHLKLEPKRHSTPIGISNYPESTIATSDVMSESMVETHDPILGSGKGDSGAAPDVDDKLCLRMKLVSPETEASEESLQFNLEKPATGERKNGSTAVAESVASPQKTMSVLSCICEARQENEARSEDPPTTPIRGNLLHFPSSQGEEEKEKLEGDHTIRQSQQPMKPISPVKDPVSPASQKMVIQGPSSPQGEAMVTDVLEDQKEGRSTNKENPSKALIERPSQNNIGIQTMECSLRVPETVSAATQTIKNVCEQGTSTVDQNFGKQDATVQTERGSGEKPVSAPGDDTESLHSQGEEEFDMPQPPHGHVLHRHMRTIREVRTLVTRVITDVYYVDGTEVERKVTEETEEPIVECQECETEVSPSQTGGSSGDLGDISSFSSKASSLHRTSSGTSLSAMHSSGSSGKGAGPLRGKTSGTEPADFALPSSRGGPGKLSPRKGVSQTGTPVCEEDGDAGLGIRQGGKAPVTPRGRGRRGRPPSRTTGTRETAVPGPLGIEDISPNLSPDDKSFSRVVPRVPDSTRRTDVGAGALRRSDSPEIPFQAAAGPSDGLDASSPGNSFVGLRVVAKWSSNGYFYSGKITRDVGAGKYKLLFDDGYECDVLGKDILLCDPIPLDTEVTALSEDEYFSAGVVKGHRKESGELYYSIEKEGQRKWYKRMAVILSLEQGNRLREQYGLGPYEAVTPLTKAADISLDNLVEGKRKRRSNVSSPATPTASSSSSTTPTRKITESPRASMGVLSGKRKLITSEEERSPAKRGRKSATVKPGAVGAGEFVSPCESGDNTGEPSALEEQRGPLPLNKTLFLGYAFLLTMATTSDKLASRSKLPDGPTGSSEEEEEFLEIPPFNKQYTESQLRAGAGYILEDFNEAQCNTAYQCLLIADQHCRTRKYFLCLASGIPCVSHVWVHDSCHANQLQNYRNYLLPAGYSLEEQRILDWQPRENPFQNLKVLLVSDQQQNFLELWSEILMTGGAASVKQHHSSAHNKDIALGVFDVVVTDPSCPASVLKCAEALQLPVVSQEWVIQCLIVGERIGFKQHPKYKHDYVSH

As for `CN1CCCC1C1CCN(C(=O)c2cccc(Br)c2)CC1` (stereo not drawn), the inhibition (as a rule, the percentage by which the read-out fell short of the control) is 32% in assay [1] and 3% in assay [2]. In addition, the inhibition result in assay [3] is “inactive”. Further, the IC50 – broadly, the concentration that gives 50% inhibition – in assay [4] is above 30 µM.
As for `CC1CCCN1C1CCN(C(=O)c2cccc(Br)c2)CC1` (stereo not drawn), the inhibition in assay [5] was found to be 25%; in assay [1], 16%; in assay [2], 6%. In addition, the inhibition entry in assay [3] is “inactive”. Further, in assay [4], the IC50 was above 30 µM.
Take `O=C(c1cccc(Br)c1)N1CCC(N2CCCC2)CC1`: the inhibition in assay [1] amounted to 44%. Moreover, the Activity in assay [6] was found to be 124%. The IC50 in assay [4] stood at 15.6 µM.
As to `O=C(c1cccc(Br)c1)N1CCC(N2CCC2)CC1`, the inhibition in assay [1] turned out to be 20%; in assay [2], 32%; in assay [3], 4%. Besides, the IC50 in assay [4] is above 30 µM.
`O=C(c1cccc(Br)c1)N1CCN(C2CCCC2)CC1`: in assay [5], the inhibition is 5%. Further, the inhibition entry in assay [1], in assay [2] and in assay [3] was “inactive” in each case. For the same compound, the IC50 in assay [4] was above 30 µM.
Turning to `O=C(c1cccc(Br)c1)N1CCC(C2CCCN2)CC1` (stereo not drawn), the inhibition in assay [5] was found to be 52%; in assay [2], 6%. In assay [3], the inhibition result is “inactive”. The IC50 in assay [4] is above 30 µM.
For `O=C(O)c1cccc(C(=O)N2CCC(N3CCCC3)CC2)c1`, the inhibition in assay [1] was 4%; in assay [2], 31%; in assay [3], 26%. Besides, the concentration for half-maximal inhibition (IC50) in assay [4] was above 30 µM.
In the case of `O=C(c1cccc(Br)c1)N1CCC(N2CCCCC2)CC1`, the inhibition in assay [5] came out at 21%; in assay [2] it was 5%. Besides, in assay [6], the Activity is 120%. In assay [3], the inhibition result was “inactive”. Moreover, the IC50 in assay [4] is above 30 µM.
As for `CC(c1cccc(Br)c1)N1CCC(N2CCCC2)CC1` (racemic), the inhibition was 25% in assay [2] and 13% in assay [3]. The IC50 in assay [4] was above 30 µM.
Turning to `C[N+]1(C2CCN(C(=O)c3cccc(Br)c3)CC2)CCCC1`, the values for the inhibition in assay [5] and in assay [1] were 13% and 3%, respectively. Further, the inhibition result in assay [2] and in assay [3] was “inactive” throughout. For the same compound, the 50% inhibitory concentration (IC50) in assay [4] is above 30 µM.
With `CN(C)C1CCN(C(=O)c2cccc(Br)c2)CC1`, the inhibition in assay [5] turned out to be 18%; in assay [1] it was 1%; in assay [2], 5%. In assay [3], the inhibition entry was “inactive”. Also, the IC50 in assay [4] is above 30 µM.
For `O=C(c1cccc(Br)c1)N1CCC(N2CCCC2)C1` (stereo not drawn), in that order: 40%, 13%, 18%, “inactive” and above 30 µM.
Turning to `CNC1CCN(C(=O)c2cccc(Br)c2)CC1`, the figures for the inhibition in assay [5] and in assay [1] were 9% and 3%, respectively. Further, the inhibition result in assay [2] and in assay [3] was “inactive” throughout. In assay [4], the IC50 was above 30 µM.
As for `O=S(=O)(c1cccc(Br)c1)N1CCC(N2CCCC2)CC1`, the inhibition in assay [2] was 48%; in assay [3], 6%. In assay [4], the IC50 is above 30 µM.
As to `Brc1cccc(CN2CCC(N3CCCC3)CC2)c1`, the inhibition in assay [2] came out at 20%; in assay [3], 10%. The IC50 in assay [4] is above 30 µM.
